Results on 16 molecules are retold here after US20250143305A1, “PYRAZOLE COMPOUND AND PEST CONTROL AGENT CONTAINING THE SAME AS ACTIVE INGREDIENT” (MITSUI CHEMICALS CROP & LIFE SOLUTIONS, INC., priority 2022, published 2025).

SMILES strings stand for the structures.

Holding throughout (assay type): in vivo
In assay [1] the test system is Nilaparvata lugens. In words: Insecticidal test against Nilaparvata lugens, spray on rice seedling. The following applies: 144 h, acetone solution sprayed on rice seedling, 10 young larvae, 25° C., after 6 days, read-out: mortality rate. The procedure: (§1) Insecticidal Test Against Nilaparvata lugens
(§2) 2.5 ml of an acetone solution prepared to have a predetermined concentration of the test compound was sprayed on a rice (Oryza sativa) seedling, and the rice seedling was transferred to a glass tube in which water was retained. After air drying, 10 young larvae were released into the glass tube, and the glass tube was covered with a sponge stopper. The glass tube was allowed to stand in a thermostatic chamber at 25° C., and the numbers of living insects and dead insects were examined after 6 days.

For a further assay, the system named is Spodoptera litura. Nature of the assay: Insecticidal test against Spodopteta litura, cabbage leaf pieces immersed. The following applies: 144 h, 1,000 ppm, cabbage leaf pieces immersed 30 seconds, five 2nd instar larvae, 25° C., after 6 days, read-out: mortality rate. The method, then: Insecticidal Test Against Spodopteta litura
Cabbage (Brassicae oleracea) leaf pieces were immersed in a chemical solution prepared to have a predetermined concentration of the test compound for 30 seconds, air-dried, then placed in a 7 cm polyethylene cup with a filter paper laid thereon, and five 2nd instar larvae of Spodoptera litura were released. The container was allowed to stand in a thermostatic chamber at 25° C., and the numbers of living insects and dead insects were examined after 6 days.

The test system of assay [2] is Myzus persicae. In words: Insecticidal test against Myzus persicae, spray on radish leaves. The following applies: 120 h, 20% acetone aqueous solution sprayed on radish leaves, 25 young larvae, 25° C., after 5 days, read-out: mortality rate. The method, then:
(§3) Insecticidal Test Against Myzus persicae
2.5 ml of a 20% acetone aqueous solution prepared to have a predetermined concentration of the test compound was sprayed on the leaves of radish (Raphanus sativus) in which the roots retained water and 25 young larvae were parasitized. After air drying, it was allowed to stand in a thermostatic chamber at 25° C., and the number of living insects and the number of dead insects were examined after 5 days.

Assay [3] deals with Nilaparvata lugens. In words: Insecticidal test against Nilaparvata lugens, root part of rice seedling immersed. The note with it: 144 h, 2% acetone aqueous solution, 10 young larvae, 25° C., after 6 days, read-out: mortality rate. The procedure:
as §1
12.5 ml of a 2% acetone aqueous solution in which the test compound was adjusted to a predetermined concentration was placed in a container, and a root part of a rice (Oryza sativa) seedling fixed with a sponge and a plastic cylinder was immersed. 10 young larvae were released into the container, and the container was covered with a plastic lid. The container was allowed to stand in a thermostatic chamber at 25° C., and the numbers of living insects and dead insects were examined after 6 days.

A further assay deals with Sogatella furcifera. Nature of the assay: Insecticidal test against Sogatella furcifera, spray on rice seedling. The following applies: 144 h, acetone solution sprayed on rice seedling, 10 young larvae, 25° C., after 6 days, read-out: mortality rate. The method, then:
Insecticidal Test Against Sogatella furcifera
as §2

Assay [4] deals with Myzus persicae. In words: Insecticidal test against Myzus persicae, root part of radish seedling immersed. The note with it: 120 h, 2% acetone aqueous solution, 25 young larvae, 25° C., after 5 days, read-out: mortality rate. The procedure: as §3
12.5 ml of a 2% acetone aqueous solution in which the test compound was adjusted to a predetermined concentration was placed in a container, and a root part of a young radish (Raphanus sativus) seedling that was fixed with a sponge and parasitized with 25 young larvae was immersed. The container was allowed to stand in a thermostatic chamber at 25° C., and the numbers of living insects and dead insects were examined after 5 days.

For the molecule `CCSc1c(-c2nc3cc(C(F)(F)F)ncn3n2)nn(C)c1NC(C)=O` [compound 10, N-(4-(ethylthio)-1-methyl-3-(7-(trifluoromethyl)-[1,2,4]triazolo[1,5-c]pyrimidin-2-yl)-1H-pyrazol-5-yl)acetamide], the mortality at 100 ppm in the assay on Nilaparvata lugens [1] was ≥ 50%.

Consider `CCSc1c(-c2cn3cnc(C(F)(F)F)cc3n2)nn(C)c1NC(=O)c1ccccn1` [compound 84, N-(4-(ethylthio)-1-methyl-3-(7-(trifluoromethyl)imidazo[1,2-c]pyrimidin-2-yl)-1H-pyrazol-5-yl)picolinamide], for which, in the assay with Spodoptera litura, the mortality at 1000 ppm was ≥ 50%. The mortality at 100 ppm with Nilaparvata lugens [1] is ≥ 50%.

Take `CCSc1c(-c2nc3cc(C(F)(F)F)ncn3n2)nn(C)c1N` [compound 5, 4-(ethylthio)-1-methyl-3-(7-(trifluoromethyl)-[1,2,4]triazolo[1,5-c]pyrimidin-2-yl)-1H-pyrazol-5-amine]: in the assay with Myzus persicae [2], the mortality at 100 ppm is ≥ 50%.

As to `CCS(=O)(=O)c1c(-c2cn3cnc(C(F)(F)F)cc3n2)nn(C)c1NC(=O)C(F)(F)F` [compound 1, N-(4-(ethylsulfonyl)-1-methyl-3-(7-(trifluoromethyl)imidazo[1,2-c]pyrimidin-2-yl)-1H-pyrazol-5-yl)-2,2,2-trifluoroacetamide], the mortality at 100 ppm in the assay on Nilaparvata lugens [3], with Myzus persicae [2], in the assay on Sogatella furcifera, in the assay with Nilaparvata lugens [1] and in the assay with Myzus persicae [4] was ≥ 50% each time.

Regarding `CCSc1c(-c2cn3cnc(C(F)(F)F)cc3n2)nn(C)c1N(C)C(=O)C(F)(F)F` [compound 30, N-(4-(ethylthio)-1-methyl-3-(7-(trifluoromethyl)imidazo[1,2-c]pyrimidin-2-yl)-1H-pyrazol-5-yl)-2,2,2-trifluoro-N-methylacetamide], the mortality at 100 ppm with Nilaparvata lugens [3] and in the assay on Sogatella furcifera was ≥ 50% each time.

On to `CCSc1c(-c2cn3cnc(C(F)(F)F)cc3n2)nn(C)c1N(C)C(=O)OC(C)(C)C` [compound 28, t-butyl(4-(ethylthio)-1-methyl-3-(7-(trifluoromethyl)imidazo[1,2-c]pyrimidin-2-yl)-1H-pyrazol-5-yl)(methyl)carbamate], for which, in the assay on Nilaparvata lugens [1], the mortality at 100 ppm was ≥ 50%.

In the case of `CCSc1c(-c2cn3cnc(C(F)(F)F)cc3n2)nn(C)c1N` [compound 39, 4-(ethylthio)-1-methyl-3-(7-(trifluoromethyl)imidazo[1,2-c]pyrimidin-2-yl)-1H-pyrazol-5-amine], the mortality at 100 ppm in the assay on Nilaparvata lugens [3], in the assay with Myzus persicae [2], in the assay with Sogatella furcifera and in the assay on Nilaparvata lugens [1] was ≥ 50% each time.

As to `CCS(=O)(=O)c1c(-c2nc3cc(C(F)(F)F)ncn3c2Br)nn(C)c1NC(=O)C(F)(F)F` [compound 54, N-(3-(3-bromo-7-(trifluoromethyl)imidazo[1,2-c]pyrimidin-2-yl)-4-(ethylsulfonyl)-1-methyl-1H-pyrazol-5-yl)-2,2,2-trifluoroacetamide], the mortality at 100 ppm with Nilaparvata lugens [3], in the assay with Myzus persicae [2], with Sogatella furcifera and in the assay on Nilaparvata lugens [1] was ≥ 50% each time.

Take `CCS(=O)(=O)c1c(-c2cn3cnc(C(F)(F)F)cc3n2)nn(C)c1NC(=O)c1ccccn1` [compound 86, N-(4-(ethylsulfonyl)-1-methyl-3-(7-(trifluoromethyl)imidazo[1,2-c]pyrimidin-2-yl)-1H-pyrazol-5-yl)picolinamide]: in the assay with Spodoptera litura, the mortality at 1000 ppm was ≥ 50%. For the same molecule, the mortality at 100 ppm with Myzus persicae [2] and with Nilaparvata lugens [1] was ≥ 50% throughout.

For `CCSc1c(-c2cn3cnc(C(F)(F)F)cc3n2)nn(C)c1NC` [compound 29, 4-(ethylthio)-N,1-dimethyl-3-(7-(trifluoromethyl)imidazo[1,2-c]pyrimidin-2-yl)-1H-pyrazol-5-amine], the mortality at 100 ppm in the assay on Sogatella furcifera and with Nilaparvata lugens [1] was ≥ 50% in each case.

Turning to `CCSc1c(-c2nc3cc(C(F)(F)F)ncn3n2)nn(C)c1NC(=O)OC(C)(C)C` [compound 4, t-butyl (4-(ethylthio)-1-methyl-3-(7-(trifluoromethyl)-[1,2,4]triazolo[1,5-c]pyrimidin-2-yl)-1H-pyrazol-5-yl)carbamate], the mortality at 100 ppm with Nilaparvata lugens [1] is ≥ 50%.

Regarding `CCSc1c(-c2cn3cnc(C(F)(F)F)cc3n2)nn(C)c1NC(=O)OC(C)(C)C` [compound 26, t-butyl(4-(ethylthio)-1-methyl-3-(7-(trifluoromethyl)imidazo[1,2-c]pyrimidin-2-yl)-1H-pyrazol-5-yl)carbamate], the mortality at 100 ppm in the assay on Sogatella furcifera is ≥ 50%.

In the case of `CCS(=O)(=O)c1c(-c2nc3cc(C(F)(F)F)ncn3c2Cl)nn(C)c1NC(=O)C(F)(F)F` [compound 53, N-(3-(3-chloro-7-(trifluoromethyl)imidazo[1,2-c]pyrimidin-2-yl)-4-(ethylsulfonyl)-1-methyl-1H-pyrazol-5-yl)-2,2,2-trifluoroacetamide], the mortality at 100 ppm in the assay with Nilaparvata lugens [3], with Myzus persicae [2], in the assay with Sogatella furcifera and with Nilaparvata lugens [1] was ≥ 50% each time.

For the molecule `CCS(=O)(=O)c1c(-c2nc3cc(C(F)(F)F)ncn3n2)nn(C)c1NC(C)=O` [compound 11, N-(4-(Ethylsulfonyl)-1-methyl-3-(7-(trifluoromethyl)-[1,2,4]triazolo[1,5-c]pyrimidin-2-yl)-1H-pyrazol-5-yl)acetamide], the mortality at 100 ppm with Nilaparvata lugens [3], with Myzus persicae [2], in the assay on Sogatella furcifera and in the assay with Nilaparvata lugens [1] was ≥ 50% in each case.

As for `CCS(=O)(=O)c1c(-c2cn3cnc(C(F)(F)F)cc3n2)nn(C)c1N` [compound 100, 4-(ethylsulfonyl)-1-methyl-3-(7-(trifluoromethyl)imidazo[1,2-c]pyrimidin-2-yl)-1H-pyrazol-5-amine], the mortality at 100 ppm in the assay on Nilaparvata lugens [3], in the assay with Myzus persicae [2], with Sogatella furcifera and in the assay on Nilaparvata lugens [1] was ≥ 50% each time.

Regarding `CCSc1c(-c2cn3cnc(C(F)(F)F)cc3n2)nn(C)c1NC(=O)C(F)(F)F` [compound 27], the mortality at 100 ppm with Myzus persicae [2], in the assay on Sogatella furcifera and in the assay on Nilaparvata lugens [1] was ≥ 50% in each case.
